Data on 19 compounds can be found in patent publication US10537558B2 (Bantam Pharmaceutical, LLC, priority 2015, dated 2020).

Molecules are shown by their SMILES. A value given as a limit tells only on which side of the number the result lay.

This assay relates to BJAB cells. Put plainly: BJAB cell proliferation (Cell Titer Glo). In kind it is cell-based. Conditions: Homo sapiens, read-out: EC50. The procedure, abridged:
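EC50 values come from non-linear regression of luminescence (Cell Titer Glo), expressed relative to untreated wells. BJAB cells were incubated roughly 72 h at 37 °C with serial compound dilutions carrying 0.1% final DMSO.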
Take `Cc1cc(-c2c(C)nn(-c3nc(-c4ccc(C(F)(F)F)cc4)c(SC(C)C)s3)c2C(=O)O)cc(C)c1F` [Compound 241, 4-(4-fluoro-3,5-dimethylphenyl)-1-(5-(isopropylthio)-4-(4-(trifluoromethyl)phenyl)thiazol-2-yl)-3-methyl-1H-pyrazole-5-carboxylic acid]: the EC50 is less than 1 µM.
Consider `Cc1nn(-c2nc(-c3cnc(C(F)(F)F)nc3)c(SC(C)C)s2)c(C(=O)O)c1-c1cccc(F)c1` [Compound 242, 4-(3-fluorophenyl)-1-(5-(isopropylthio)-4-(2-(trifluoromethyl)pyrimidin-5-yl)thiazol-2-yl)-3-methyl-1H-pyrazole-5-carboxylic Acid], for which the half-maximal effective concentration (EC50) was 5 to 10 µM.
For `CCNC(=O)c1cc(-c2nc(-n3nc(C)c(-c4cccc(F)c4)c3C(=O)O)sc2SC(C)C)ccc1Cl` [Compound 243, 1-(4-(4-chloro-3-(ethylcarbamoyl)phenyl)-5-(isopropylthio)thiazol-2-yl)-4-(3-fluorophenyl)-3-methyl-1H-pyrazole-5-carboxylic Acid] the value was greater than 40 µM; for `Cc1nn(-c2nc(-c3ccc(C(F)(F)F)cc3N)c(SC(C)C)s2)c(C(=O)O)c1-c1cccc(F)c1` [Compound 244, 1-(4-(2-amino-4-(trifluoromethyl)phenyl)-5-(isopropylthio)thiazol-2-yl)-4-(3-fluorophenyl)-3-methyl-1H-pyrazole-5-carboxylic Acid], 1 to 5 µM; for `Cc1nn(-c2nc(C#Cc3ccc(C(F)(F)F)cc3)c(SC(C)C)s2)c(C(=O)O)c1-c1cccc(F)c1` [Compound 245, 4-(3-fluorophenyl)-1-(5-(isopropylthio)-4-((4-(trifluoromethyl)phenyl)ethynyl)thiazol-2-yl)-3-methyl-1H-pyrazole-5-carboxylic acid], 10 to 25 µM.
The value for `Cc1nn(-c2nc(-c3ncc(C(F)(F)F)cn3)c(SC(C)C)s2)c(C(=O)O)c1-c1cccc(F)c1` [Compound 246, 4-(3-fluorophenyl)-1-(5-(isopropylthio)-4-(5-(trifluoromethyl)pyrimidin-2-yl)thiazol-2-yl)-3-methyl-1H-pyrazole-5-carboxylic Acid] was 10 to 25 µM.
In the case of `Cc1nn(-c2nc(-c3ccc(C(F)(F)F)cc3)cs2)c(C(=O)O)c1-c1cccc(F)c1` [Compound 247, 4-(3-fluorophenyl)-3-methyl-1-(4-(4-(trifluoromethyl)phenyl)thiazol-2-yl)-1H-pyrazole-5-carboxylic acid], the EC50 lay in the range of 10 to 25 µM.
The value for `COCCN(C)C(=O)c1c(-c2cccc(F)c2)c(C)nn1-c1nc(-c2ccc(C(F)(F)F)cc2)c(SC(C)C)s1` [Compound 248, 4-(3-fluorophenyl)-1-(5-(isopropylthio)-4-(4-(trifluoromethyl)phenyl)thiazol-2-yl)-N-(2-methoxyethyl)-N,3-dimethyl-1H-pyrazole-5-carboxamide] was greater than 20 µM; that for `Cc1nn(-c2nc(-c3ccc(C(F)(F)F)cc3)c(SC(C)C)s2)c(C(=O)NCCOCCOCCOCCN=[N+]=[N-])c1-c1cccc(F)c1` [Compound 249, N-(2-(2-(2-(2-azidoethoxy)ethoxy)ethoxy)ethyl)-4-(3-fluorophenyl)-1-(5-(isopropylthio)-4-(4-(trifluoromethyl)phenyl)thiazol-2-yl)-3-methyl-1H-pyrazole-5-carboxamide] was greater than 20 µM.
Regarding `COCCNC(=O)c1c(-c2cccc(F)c2)c(C)nn1-c1nc(-c2ccc(C(F)(F)F)cc2)c(SC(C)C)s1` [Compound 250, 4-(3-fluorophenyl)-1-(5-(isopropylthio)-4-(4-(trifluoromethyl)phenyl)thiazol-2-yl)-N-(2-methoxyethyl)-3-methyl-1H-pyrazole-5-carboxamide], the EC50 lay within 10 to 25 µM.
The value for `CCCS(=O)(=O)NC(=O)c1c(-c2cccc(F)c2)c(C)nn1-c1nc(-c2ccc(C(F)(F)F)cc2)c(SC(C)C)s1` [Compound 251, 4-(3-fluorophenyl)-1-(5-(isopropylthio)-4-(4-(trifluoromethyl)phenyl)thiazol-2-yl)-3-methyl-N-(propylsulfonyl)-1H-pyrazole-5-carboxamide] was greater than 20 µM; that for `Cc1nn(-c2nc(-c3ccccc3C(F)(F)F)c(SC(C)C)s2)c(C(=O)O)c1-c1cccc(F)c1` [Compound 252, 4-(3-fluorophenyl)-1-(5-(isopropylthio)-4-(2-(trifluoromethyl)phenyl)thiazol-2-yl)-3-methyl-1H-pyrazole-5-carboxylic acid] was 10 to 25 µM.
For `Cc1nn(-c2nc(-c3cccc(C(F)(F)F)c3)c(SC(C)C)s2)c(C(=O)O)c1-c1cccc(F)c1` [Compound 253, 4-(3-fluorophenyl)-1-(5-(isopropylthio)-4-(3-(trifluoromethyl)phenyl)thiazol-2-yl)-3-methyl-1H-pyrazole-5-carboxylic acid] the value was 5 to 10 µM; for `Cc1nn(-c2nc(-c3ccc(C(F)(F)F)cc3)c(NC(C)C)s2)c(C(=O)O)c1-c1cccc(F)c1` [Compound 254, 4-(3-fluorophenyl)-1-(5-(isopropylamino)-4-(4-(trifluoromethyl)phenyl)thiazol-2-yl)-3-methyl-1H-pyrazole-5-carboxylic acid], 5 to 10 µM; for `Cc1nn(-c2nc(-c3ccc(S(F)(F)(F)(F)F)cc3)c(SC(C)C)s2)c(C(=O)O)c1-c1cccc(F)c1` [Compound 255, 4-(3-fluorophenyl)-1-(5-(isopropylthio)-4-(4-(pentafluoro-λ^6-sulfaneyl)phenyl)thiazol-2-yl)-3-methyl-1H-pyrazole-5-carboxylic acid], less than 1 µM.
The value for `CONC(=O)c1c(-c2cccc(F)c2)c(C)nn1-c1nc(-c2ccc(C(F)(F)F)cc2)c(SC(C)C)s1` [Compound 256, 4-(3-fluorophenyl)-1-(5-(isopropylthio)-4-(4-(trifluoromethyl)phenyl)thiazol-2-yl)-N-methoxy-3-methyl-1H-pyrazole-5-carboxamide] was 10 to 25 µM; that for `Cc1nn(-c2nc(-c3ccc(CC(F)(F)F)cc3)c(SC(C)C)s2)c(C(=O)O)c1-c1cccc(F)c1` [Compound 257, 4-(3-fluorophenyl)-1-(5-(isopropylthio)-4-(4-(2,2,2-trifluoroethyl)phenyl)thiazol-2-yl)-3-methyl-1H-pyrazole-5-carboxylic acid] was 1 to 5 µM; that for `Cc1nn(-c2nc(-c3ccc(C(F)(F)F)nc3)c(SC(C)C)s2)c(C(=O)O)c1-c1cccc(F)c1` [Compound 258, 4-(3-fluorophenyl)-1-(5-(isopropylthio)-4-(6-(trifluoromethyl)pyridin-3-yl)thiazol-2-yl)-3-methyl-1H-pyrazole-5-carboxylic acid] was 1 to 5 µM.
`Cc1nn(-c2nc(-c3cnn(CC(F)(F)F)c3)c(SC(C)C)s2)c(C(=O)O)c1-c1cccc(F)c1` [Compound 259, 4-(3-fluorophenyl)-1-(5-(isopropylthio)-4-(1-(2,2,2-trifluoroethyl)-1H-pyrazol-4-yl)thiazol-2-yl)-3-methyl-1H-pyrazole-5-carboxylic acid]: the EC50 was 10 to 25 µM.
